From patent publication US20180213776A1, “COMPOSITIONS FOR C[…] POPULATIONS” (PRESIDENT AND FELLOWS OF HARVARD COLLEGE, priority 2015, published 2018)

Experiments:
[1] = test system: An. gambiae females; assay: Mating success (insemination) after topical DBH application; format: in vivo
Procedure: (§1) An. gambiae mosquitoes of the G3 strain were employed in all experiments. All mosquitoes were maintained under standard insectary conditions (26-28° C., 65-80% relative humidity, 12:12 hours light/dark photoperiod).
(§2) The DBH compound methoxyfenozide (0.5 μl of a 0.4% solution re-suspended in acetone) (Sigma-Aldrich, 32507) was topically applied to the thorax of An. gambiae females anesthetized on ice using a micropipette. Mating success, egg development after blood feeding and longevity were determined relative to acetone-treated controls. Females were 2 days old at the time of application, and each experiment was replicated twice. The effects of methoxyfenozide on mating success were determined by adding DBH-treated and control virgin females into separate cages containing a large excess of 5 day-old virgin males, 24 hours following topical application. 48 hours later successfully inseminated (mated) females from each cage were determined via dissection and the presence of sperm in the spermatheca. […] Egg development was evaluated 3 days later upon dissection of the ovaries.
(§3) A mating effect experiment was comprised of an unexposed and exposed group with cases defined as those who mated. The efficacy of the mating effect was defined as the prevented fraction in exposed, i.e. one minus the risk ratio. […]

[2] = test system: An. gambiae females; assay: Egg development after blood feeding; format: in vivo
Procedure: as §1, §2, §3

[3] = test system: An. gambiae females; assay: Longevity / mortality after DBH exposure; format: in vivo
Procedure: as §1
For the longevity experiments, DBH-treated and control females were maintained in cups and supplied ad libitum with a 10% sucrose solution and water. Mortality rates after DBH/acetone exposure were recorded daily for 2 weeks, encompassing the period needed for mosquitoes to become infectious.
Day post-exposure was stratified to account for the time varying nature in the mortality effect experiment. For each day, there is the number of exposed and unexposed mosquitoes surviving to that day (risk set), and the number in each group surviving through that day. Using the risk set in day i, the relative risk of surviving through day i (RRi) is estimated, comparing the exposed to the unexposed. The efficacy for the mortality was defined as one minus RRi for day i. The confidence interval for the relative risk of survival was estimated using a Normal approximation of ln(RRi), with standard error:
(§4) At the highest dose (2 μg), only 7.5% of females who fully engorged on an infectious blood meal were positive for oocysts, corresponding to an 87% reduction in infection prevalence relative to controls.

[4] = test system: An. gambiae females; assay: Dose dependency of egg laying (oviposition); format: in vivo; conditions: for individuals laying eggs: 24 hours prior to blood feeding, control 100%
Procedure: as §1
Mated females were tested for their ability to develop and lay eggs when exposed to DBH 24 hours prior to blood feeding at 5 different doses ranging in a 2-fold dilution series from about 2 μg to about 0.125 μg per mosquito, respectively. One hundred percent (100%) of the control females oviposited after a blood meal. […] An ED50 dose of […] (0.08-0.13 95% CI) was determined from the dose-response curve (slope of 2.32, R=0.993). Moreover, even in cases where females oviposited, a significant reduction in the number of eggs laid was detected at the three highest doses (e.g., 2 μg; 1 μg; and 0.5 μg), with a median egg number of zero compared to a median of 91.5 eggs in the control group.

[5] = test system: primary ovarian follicles; assay: TUNEL assay of ovaries (apoptosis of ovarian follicles); format: in vivo, An. gambiae; conditions: 24 hours after DBH exposure
Excerpt: Induction of autogenous egg development after exposure was not observed.

[6] = test system: P. falciparum (NF54 strain); assay: P. falciparum infection (oocysts) after infectious blood meal; format: in vivo
Procedure: as §4

[7] = test system: Aedes species; assay: Preliminary data on eggs of Aedes species; format: in vivo
[8] = test system: mammals; conditions: cited from earlier work

methoxyfenozide [DBH]
efficacy: reduced mating success (reduction) ([1]; prevented fraction in exposed, 68% CI 58-73%): 67% | females successfully inseminated by males (sperm in the spermatheca) ([1]; treated once, 0.5 μl of 0.4% solution topically to thorax, controls 86%): 29% | egg development after blood feeding ([2]; 0.5 μl of 0.4% solution topical, blood fed 24 hours after application, ovaries dissected 3 days later): completely abolished | efficacy: impaired egg development (reduction) ([2]; prevented fraction in exposed, add-one smoothing, 68% CI 94-99%): 98% | median survival time ([3]; 0.125 μg, control 19 days): 16 days | median survival time ([3]; 2 μg, control 19 days): 11 days | mortality over 14 days ([3]; 0.5 μl of 0.4% solution topical, controls 10%): ~100% | median survival time ([3]; 0.5 μl of 0.4% solution topical, recorded 2 weeks): 8 days | efficacy: maximum increase in daily mortality rate ([3]; day 8 post exposure, 68% CI 37-72%): 60% | reduction in median survival time compared to controls ([3]; highest dose (2 μg)): eight | females with no eggs developed in the ovaries despite fully engorging on blood ([4]; all DBH-exposed groups, upon dissection): 98.7% | individuals laying eggs ([4]; highest dose 2 μg per mosquito): 10.9% | induction of autogenous egg development after exposure ([4]; in vivo): not observed | individuals laying eggs ([4]; median dose 0.5 μg per mosquito): 47.4% | median egg number laid ([4]; three highest doses (2 μg; 1 μg; 0.5 μg), control median 91.5 eggs): zero | TUNEL: apoptosis of primary ovarian follicles [5]: extensive fragmentation of chromatin, indicative of apoptosis | reduction in infection prevalence relative to controls ([6]; 2 μg): 87% | females positive for oocysts ([6]; 2 μg, 7 days post-infectious blood meal, control 58.5%): 7.5% | intensity of infection in females that developed oocysts ([6]; in vivo): not significantly affected | oocyst prevalence ([6]; low dose 0.125 μg, control 58.5%): 50.7% | females failed to develop an infection ([6]; median dose 0.5 μg): 25.8% | reduction in prevalence ([6]; median dose 0.5 μg): 56% | effect on eggs [7]: deformed eggs | carcinogenicity [8]: non-carcinogenic | toxicity to mammals [8]: not toxic to mammals unless used at extremely high concentrations
